Experimental findings from patent publication US20150038545A1, “HYDROXYPHENYL PYRROLE COMPOUNDS CONTAINING AN HYDROXAMIC ACID AS HDAC INHIBITORS AND MEDICINAL APPLICATIONS THEREOF” (UNIVERSIDAD DEL PAÍS VASCO, priority 2011, published 2015) are described below.

One assay relates to BT474. Nature of the assay: Cancer cell growth inhibition (CellTiter-Glo), BT474. Format: cell-based. The conditions noted are these: Homo sapiens, BT-474; Breast Cancer, BT474, 72 h treatment. As for the experimental part:
(§1) Cell culture-based assays were used to evaluate the ability of compounds of the invention to inhibit cancer cell growth.
(§2) Cells were obtained from the American Type Culture Collection (ATCC). Cells were cultured at 37° C. with 5% CO2 in the appropriate growth medium (see table below), and harvested respectively during the logarithmic growth period and counted with hemocytometer. The cell viability was examined by trypan blue exclusion. Cell concentrations were adjusted to 5.56×10^4 cells/ml with respective medium.
(§3) Stock solutions of test compounds and positive drugs Doxorubicin (Zhejiang, Haizheng, China), Cisplatin (Nanjing Zhiyao, China) and Mitomycin (Zhejiang, Haizheng, China) were prepared in dimethyl sulphoxide (DMSO) or PBS at 20 mM.
(§4) In order to determine the IC50 for each compound, experiments were carried out in 96-well plates and the cell lines seeded at a density of 5,000 cells/well. […] All treatments were performed in triplicate. 10 μl of drug solution was added to each well and incubated for 72 hours. At the end of the incubation, 100 μl of the CellTiter-Glo Reagent were added to each well and the contents were mixed for 2 munites on an orbital shaker to induce cell lysis. The plate was incubated at room temperature for 10 minutes to stabilize luminiscent signal, and luminiscent was recorded. […] In order to calculate IC50 values, dose-responsive curves were fitted using nonlinear regression model with a sigmoidal dose response.

A further assay deals with MDA-MB-231. The experiment in a line: Cancer cell growth inhibition (CellTiter-Glo), MDA-MB-231. Format: cell-based. The following applies: Homo sapiens; Breast Cancer, MDA-MB-231, 72 h treatment. As for the experimental part:
as §1, §2, §3, §4

In a further assay the test system is PC-3. The experiment in a line: Cancer cell growth inhibition (CellTiter-Glo), PC-3. Format: cell-based, Human. The conditions noted are these: Homo sapiens; Prostate Cancer, PC-3, 72 h treatment. As for the experimental part: as §1, §2, §3, §4
A general note: In ATP-based viability assays light output follows the ATP content of the culture.

A further assay deals with Colo205. Nature of the assay: Cancer cell growth inhibition (CellTiter-Glo), Colo205. Format: cell-based. The following applies: Homo sapiens, COLO 205; Colorectal Cancer, Colo205, 72 h treatment. As for the experimental part: as §1, §2, §3, §4
The subject of the next assay is DLD-1. Nature of the assay: Cancer cell growth inhibition (CellTiter-Glo), DLD-1. Format: cell-based, Human. The conditions noted are these: Homo sapiens; Colorectal Cancer, DLD-1, 72 h treatment. On the procedure:
as §1, §2, §3, §4

The next assay concerns HCT-116. The experiment in a line: Cancer cell growth inhibition (CellTiter-Glo), HCT-116. Format: cell-based. The conditions noted are these: Homo sapiens; Colorectal Cancer, HCT-116, 72 h treatment. As for the experimental part:
as §1, §2, §3, §4

A further assay relates to NCI-H1703. Nature of the assay: Cancer cell growth inhibition (CellTiter-Glo), NCI-H1703. Format: cell-based, Human. The following applies: Homo sapiens; Lung Cancer, NCI-H1703, 72 h treatment. As for the experimental part: as §1, §2, §3, §4
A further assay deals with NCI-H460. Nature of the assay: Cancer cell growth inhibition (CellTiter-Glo), NCI-H460. It is filed as cell-based, Human. The conditions noted are these: Homo sapiens; Lung Cancer, NCI-H460, 72 h treatment. As for the experimental part: as §1, §2, §3, §4
The next assay has as its system U-87MG. The experiment in a line: Cancer cell growth inhibition (CellTiter-Glo), U-87MG. It is filed as cell-based, Human. The conditions noted are these: Homo sapiens, Glioblastoma, 72 h treatment. As for the experimental part: as §1, §2, §3, §4
In another assay the test system is HT-1080. Nature of the assay: Cancer cell growth inhibition (CellTiter-Glo), HT-1080. The following applies: Homo sapiens; Fibrosarcoma, HT-1080, 72 h treatment. Format: cell-based. As for the experimental part: as §1, §2, §3, §4
The subject of the next assay is Bx-PC-3. Nature of the assay: Cancer cell growth inhibition (CellTiter-Glo), Bx-PC-3. Format: cell-based, Human. The conditions noted are these: Homo sapiens, BXPC-3; Pancreatic Cancer, Bx-PC-3, 72 h treatment. On the procedure: as §1, §2, §3, §4
A further assay relates to PANC-1. Nature of the assay: Cancer cell growth inhibition (CellTiter-Glo), PANC-1. Format: cell-based, Human. The conditions noted are these: Homo sapiens; Pancreatic Cancer, PANC-1, 72 h treatment. On the procedure:
as §1, §2, §3, §4

The subject of another assay is 786-O. The experiment in a line: Cancer cell growth inhibition (CellTiter-Glo), 786-O. Format: cell-based, Human. The conditions noted are these: Homo sapiens, 786-0, Kidney Cancer, 72 h treatment. On the procedure:
as §1, §2, §3, §4

The next assay has as its system 143b. The experiment in a line: Cancer cell growth inhibition (CellTiter-Glo), 143b. Format: cell-based. The following applies: Homo sapiens, Osteosarcoma, 72 h treatment. On the procedure:
as §1, §2, §3, §4

The test system of another assay is SK-MEL-5. Nature of the assay: Cancer cell growth inhibition (CellTiter-Glo), SK-MEL-5. It is filed as cell-based, Human. The conditions noted are these: Homo sapiens; Melanoma, SK-MEL-5, 72 h treatment. On the procedure: as §1, §2, §3, §4
The next assay concerns CNE2. The experiment in a line: Cancer cell growth inhibition (CellTiter-Glo), CNE2. It is filed as cell-based, Human. The following applies: Homo sapiens, CNE-2; Nasopharyngeal, CNE2, 72 h treatment. On the procedure:
as §1, §2, §3, §4

A further assay deals with BGC-823. Nature of the assay: Cancer cell growth inhibition (CellTiter-Glo), BGC-823. Format: cell-based, Human. The conditions noted are these: Homo sapiens; Gastric Cancer, BGC-823, 72 h treatment. As for the experimental part:
as §1, §2, §3, §4

The subject of a further assay is K562. The experiment in a line: Cancer cell growth inhibition (CellTiter-Glo), K562. It is filed as cell-based, Human. The following applies: Homo sapiens; CML, K562, 72 h treatment. On the procedure:
as §1, §2, §3, §4

For the next assay, the system named is KB. Nature of the assay: Cancer cell growth inhibition (CellTiter-Glo), KB. Format: cell-based, Human. The conditions noted are these: Homo sapiens, Oral Cancer, 72 h treatment. On the procedure: as §1, §2, §3, §4

As usually defined, the IC50 is the midpoint of a concentration-inhibition curve. Lower therefore signals greater potency in that assay. Turning to `O=C(CCCCCNC(=O)c1[nH]c(-c2ccc(O)cc2)cc1-c1ccoc1)NO` [Example 5, 3-(3-furyl)-N-(5-(hydroxycarbamoyl)pentyl)-5-(4-hydroxy-phenyl)-1H-pyrrole-2-carboxamide], the 50% inhibitory concentration (IC50) in the assay with BT474 came to 0.66 µM; with MDA-MB-231 it was 8.02 µM; with PC-3 it was 25.8 µM; with Colo205, 0.59 µM; in the assay on DLD-1, 2.51 µM; in the assay on HCT-116, 0.45 µM. The IC50 with NCI-H1703 was 1.64 µM; in the assay with NCI-H460, 10.9 µM; in the assay on U-87MG it was 8.72 µM; with HT-1080, 3.12 µM; in the assay with Bx-PC-3, 2.42 µM; in the assay with PANC-1, 29.2 µM. Besides, the IC50 amounted to 3.14 µM in the assay on 786-O; 2.91 µM in the assay on 143b; 0.82 µM in the assay on SK-MEL-5; 10.1 µM in the assay with CNE2; 23.1 µM in the assay on BGC-823; 1.75 µM in the assay with K562. Moreover, the IC50 in the assay on KB came out at 0.87 µM.

Regarding `O=C(CCCCCNC(=O)c1[nH]c(-c2ccc(O)cc2)cc1-c1ccsc1)NO` [Example 6, N-(5-(hydroxycarbamoyl)pentyl)-5-(4-hydroxyphenyl)-3-(3-thienyl)-1H-pyrrole-2-carboxamide], the 50% inhibitory concentration (IC50) came out at 1.02 µM in the assay with BT474; 7.89 µM with MDA-MB-231; 26.8 µM in the assay with PC-3; 0.87 µM in the assay on Colo205; 3.5 µM in the assay on DLD-1; 0.78 µM in the assay with HCT-116. Also, the half-inhibitory concentration (IC50) in the assay with NCI-H1703 was determined as 1.83 µM; with NCI-H460 it was 9.38 µM; in the assay on U-87MG it was 8.98 µM; in the assay on HT-1080, 3.1 µM; in the assay with Bx-PC-3, 2.91 µM; with PANC-1, 22.2 µM. Besides, the 50% inhibitory concentration (IC50) in the assay with 786-O was found to be 2.7 µM; with 143b, 2.72 µM; in the assay on SK-MEL-5, 1.02 µM; in the assay on CNE2, 7.39 µM; in the assay on BGC-823, 13.8 µM; with K562, 1.35 µM. In the assay on KB, this compound came in with an IC50 of 1.45 µM.

Turning to `O=C(CCCCCNC(=O)c1[nH]c(-c2ccccc2)cc1-c1ccc(O)cc1)NO` [Example 1, N-(6-(hydroxyamino)-6-oxohexyl)-3-(4-hydroxyphenyl)-5-phenyl-1H-pyrrole-2-carboxamide], the IC50 with BT474 was determined as 2.71 µM; with MDA-MB-231, 4.33 µM; in the assay on PC-3, 17.9 µM; with Colo205, 1.87 µM; in the assay on DLD-1 it was 1.62 µM; with HCT-116 it was 0.95 µM. In addition, the IC50 came to 3.26 µM in the assay with NCI-H1703; 2.4 µM in the assay on NCI-H460; 5.67 µM in the assay on U-87MG; 3 µM with HT-1080; 2.68 µM in the assay on Bx-PC-3; 6.04 µM in the assay on PANC-1. Besides, the IC50 was 3.28 µM with 786-O; 1.71 µM in the assay on 143b; 1.28 µM with SK-MEL-5; 2.77 µM in the assay on CNE2; 2.16 µM with BGC-823; 1.02 µM with K562. Besides, the IC50 in the assay with KB was 0.95 µM.

Turning to `O=C(CCCCCNC(=O)c1[nH]c(-c2ccc(O)cc2)cc1-c1ccccc1)NO` [Example 2, N-(6-(hydroxyamino)-6-oxohexyl)-5-(4-hydroxyphenyl)-3-phenyl-1H-pyrrole-2-carboxamide], the half-maximal inhibitory concentration (IC50) amounted to 3.49 µM in the assay on BT474; 9.03 µM in the assay with MDA-MB-231; 26.9 µM with PC-3; 1.82 µM with Colo205; 4.19 µM in the assay on DLD-1; 1.75 µM with HCT-116. Besides, the IC50 in the assay with NCI-H1703 came out at 2.06 µM; in the assay with NCI-H460, 9.41 µM; with U-87MG, 11.8 µM; with HT-1080 it was 3.24 µM; with Bx-PC-3 it was 4.27 µM; with PANC-1 it was 27.7 µM. Moreover, the IC50 in the assay with 786-O stood at 3.51 µM; in the assay with 143b, 5.38 µM; with SK-MEL-5, 1.87 µM; in the assay on CNE2 it was 10.1 µM; in the assay on BGC-823, 11.7 µM; in the assay with K562 it was 1.61 µM. The compound also had a half-maximal inhibitory concentration (IC50) with KB of 2.23 µM.
